The source of these data is US20240368151A1, “NOVEL ERGOLINES AND METHODS OF TREATING MOOD DISORDERS” (priority 2021, published 2024).

Series [1] can be described thus: Metabolic stability in mouse liver microsomes (MLM). The series is classed as in vitro ADME. Particulars: mouse, pooled mouse liver microsomes, pH 7.4, MLM (CD-1), NADPH. The text has this: MLM Stability Pooled MLM from CD-1 mice (BIOIVT M00501) were used.
(In general: Liver microsomes are vesicles of endoplasmic reticulum, rich in cytochrome P450 enzymes.)

The target in series [2] is T1, 5-HT2A receptor (Homo sapiens (Human), UniProt P28223). It counts as cell-based. Particulars: beta-arrestin recruitment. The method, then: The degree of arrestin bias varied substantially across the other compounds tested as well.
Arrestin Functional Assay at 5-HT2A. Recruitment of beta-arrestin was determined using a PathHunter assay at Eurofins DiscoverX (Fremont, CA) according to their standard protocols. PathHunter GPCR beta-arrestin assays take advantage of DiscoverX's proprietary Enzyme Fragment Complementation technology. The GPCR is fused in frame with a small enzyme donor fragment ProLink™ (PK) and co-expressed in cells stably expressing a fusion protein of beta-arrestin and the larger, N-terminal deletion mutant of beta-galactosidase. Activation of the GPCR (5-HT2A receptor in this case) stimulates binding of beta-arrestin to the PK-tagged GPCR and forces complementation of the two enzyme fragments, resulting in the formation of an active beta-galactosidase enzyme. This interaction leads to an increase in enzyme activity that can be measured using chemiluminescent PathHunter Detection Reagents. Briefly, PathHunter cells expressing 5-HT2A receptors were seeded in a volume of 20 μL into 384-well plates and incubated at 37° C. for the appropriate time prior to testing. […] Plates were then imaged on a microplate reader and the agonist activity was calculated using the following formula: % Activity=100%×(mean RLU of test sample−mean RLU of vehicle control)/(mean MAX control ligand−mean RLU of vehicle control), where RLU=relative light units.
In general terms: Activated receptors often draw arrestin, which recruitment assays turn into a signal.

A short description of series [3]: Metabolic stability in rat liver microsomes (RLM). Particulars: both sexes, rat, pooled rat liver microsomes, pH 7.4, NADPH. The series is classed as in vitro ADME.
The next series deals with human 5-HT2C receptor (Homo sapiens (Human), UniProt P28335). The series is classed as cell-based. Particulars: Ca^2+ flux.
Sequence of human 5-HT2C receptor (P28335 33-458 limits assumed): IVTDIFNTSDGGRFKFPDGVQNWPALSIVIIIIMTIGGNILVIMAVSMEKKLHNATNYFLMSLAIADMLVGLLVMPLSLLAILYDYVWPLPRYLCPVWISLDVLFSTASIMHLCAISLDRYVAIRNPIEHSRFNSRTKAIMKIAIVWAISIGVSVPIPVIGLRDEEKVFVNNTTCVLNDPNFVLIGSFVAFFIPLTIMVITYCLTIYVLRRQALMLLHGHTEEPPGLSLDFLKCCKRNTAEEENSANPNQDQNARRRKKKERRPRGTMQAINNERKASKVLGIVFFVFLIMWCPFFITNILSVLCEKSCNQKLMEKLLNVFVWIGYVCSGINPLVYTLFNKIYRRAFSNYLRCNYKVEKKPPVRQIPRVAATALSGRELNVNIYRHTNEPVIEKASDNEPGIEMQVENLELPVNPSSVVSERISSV
For the next series, the target named is 5-HT2B receptor (Homo sapiens (Human), UniProt P41595). The experiment in a line: FLIPR Ca^2+ flux agonist assay at 5-HT2B. The series is classed as cell-based. Particulars: HEK293. The method, then: (§1) Functional Assays at 5-HT2A, 5-HT2B, and 5-HT1A. Agonist activity at 5-HT2A, 5-HT2B, and 5-HT1A receptors was determined using a FLIPR Ca^2+ flux assay at WuXi AppTec (Hong Kong) Limited according to their standard protocols. Briefly, stably transfected cells expressing the receptor of interest (HEK293 for 5-HT2A and 5-HT2B; CHO cells for 5-HT1A) were grown and plated in a 384 well plate and incubated at 37° C. and 5% CO2 overnight. A solution of 250 mM probenecid in 1 mL FLIPR assay buffer was prepared fresh. This was combined with a fluorescent dye (Fluo-4 Direct™) to make a final assay concentration of 2.5 mM. […] The fluorescent dye was then added to the assay plate along with assay buffer to a final volume of 40 μL. The cell plate was incubated for 50 min at 37° C. and 5% CO2 and placed into the FLIPR Tetra along with the compound plate. 10p L of references and compounds were then transferred from the compound plate into the cell plate and the fluorescent signal was read.
Sequence of 5-HT2B receptor (P41595 whole entry, looked up): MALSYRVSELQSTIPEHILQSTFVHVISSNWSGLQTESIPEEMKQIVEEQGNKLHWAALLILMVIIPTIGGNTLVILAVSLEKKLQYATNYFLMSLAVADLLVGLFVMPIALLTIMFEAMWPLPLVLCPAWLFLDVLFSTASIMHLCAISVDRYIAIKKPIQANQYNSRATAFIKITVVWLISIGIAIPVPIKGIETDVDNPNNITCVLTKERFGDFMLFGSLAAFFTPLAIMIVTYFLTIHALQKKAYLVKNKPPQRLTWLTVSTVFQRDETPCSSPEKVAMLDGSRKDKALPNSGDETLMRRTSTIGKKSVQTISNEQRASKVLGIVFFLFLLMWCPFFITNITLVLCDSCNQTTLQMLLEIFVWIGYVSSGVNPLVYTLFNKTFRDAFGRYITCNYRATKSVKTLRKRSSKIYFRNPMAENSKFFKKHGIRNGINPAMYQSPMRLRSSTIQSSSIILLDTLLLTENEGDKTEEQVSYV

Series [4] concerns the target T1, 5-HT2A receptor. It counts as cell-based. Particulars: Ca^2+ flux, HEK293. The method, then: as §1
Another series has as its system C57BL/6 mice. The experiment in a line: Mouse head twitch response (HTR) assay. The series is classed as in vivo. Particulars: mouse HTR, SC; for # HTR at Most Efficacious Dose / Emax (95% CI): 20 min observation; for Emax (95% CI): curve fit. As to the method: Agonists of the 5-HT2A receptor are well known to induce this effect in rodents and the potency of this HTR is correlated with hallucinogenic potency in humans.
Animals. Adult male C57BL/6 mice, aged 6-8 weeks (body weight 20-25 g) were used in this experiment. Animals were housed under controlled temperatures and 12-hour light/dark cycles (lights on between 07:00-19:00 h), with ad libitum food and water. This study was carried out in strict accordance with the requirements of the Committee for the Purpose of Control and Supervision of Experiments on Animals (CPCSEA), India. All efforts were made to minimize suffering.
Drugs and Drug Administration. Compound 1 was synthesized as described above. It was administered subcutaneously (SC) dissolved in saline vehicle at a volume of 10 mL/kg. Five doses were tested, with n=6 animals/group. Doses were calculated on the basis of the freebase.
Procedure. Mice were administered one dose of the drug and immediately placed into a small open field for behavioral observation. Animals were observed continuously for 20 mins and the number of head twitches (HTs) were counted by an observer blind to the treatment condition.
Statistical Analysis. The data points shown are the mean±standard error of the mean (SEM). Analysis was performed using GraphPad Prism 6. Curves were fit using a non-linear gaussian distribution to calculate ED50 and Emax values.
Additional disclosed compounds were tested in the mouse head twitch response (HTR) assay according to the procedure described in Example 34. […] Lastly, compounds with much larger benzyl and phenethyl substituents on the amine nitrogen (e.g., 10 and 11) were low efficacy in this assay, consistent with their lower maximal efficacy in the arrestin functional assay (see Example 32).

A further series concerns the target 5-HT1A receptor (Homo sapiens (Human), UniProt P08908). The experiment in a line: FLIPR Ca^2+ flux agonist assay at 5-HT1A. It counts as cell-based. Particulars: CHO cells. The method, then:
as §1

Series [5] in a line: Metabolic stability in human liver microsomes (HLM). The series is classed as in vitro ADME. Particulars: both sexes, human, pooled human liver microsomes, pH 7.4, NADPH. The source says:
HLM Stability. Pooled HLM from adult male and female donors (Corning 452117) were used.

For the next series, the target named is 5-HT1B receptor (Homo sapiens (Human), UniProt P28222). The series can be described thus: cAMP accumulation agonist assay at 5-HT1B. It counts as cell-based. The method, then: Functional Assay at 5-HT1B. Agonist activity at 5-HT1B was determined using a cAMP accumulation protocol at WuXi AppTec (Hong Kong) Limited according to their standard protocols. Briefly, stably transfected cells were plated in an OptiPlate-384 well plate, incubated at RT for 60 mins, and cAMP standard solution (800 nM, 10 μL) was added to the blank well. Then, 10 μL detection reagent was added to each well, the plate incubated for 60 mins at RT, and the plate read using EnVision.
Sequence of 5-HT1B receptor (P28222 whole entry, looked up): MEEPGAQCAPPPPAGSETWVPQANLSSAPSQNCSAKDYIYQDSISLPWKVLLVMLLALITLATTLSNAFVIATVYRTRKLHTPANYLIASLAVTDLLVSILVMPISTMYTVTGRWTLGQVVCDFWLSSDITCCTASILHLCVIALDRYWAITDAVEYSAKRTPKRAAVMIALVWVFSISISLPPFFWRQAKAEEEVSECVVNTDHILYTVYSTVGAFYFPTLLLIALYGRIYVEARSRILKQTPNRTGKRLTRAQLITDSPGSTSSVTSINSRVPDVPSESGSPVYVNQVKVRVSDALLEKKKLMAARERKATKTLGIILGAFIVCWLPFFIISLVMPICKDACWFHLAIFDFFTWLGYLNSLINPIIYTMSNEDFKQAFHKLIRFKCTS
Background: cAMP levels reflect the balance of adenylyl cyclase and phosphodiesterase activity.

On to `CCC[C@@H](C)NC(=O)[C@@H]1C=C2c3cccc4[nH]cc(c34)C[C@H]2N(CCC)C1` [Compound 7, (6aR,9R)-N-((R)-pentan-2-yl)-7-propyl-4,6,6a,7,8,9-hexahydroindolo[4,3-fg]quinoline-9-carboxamide], for which the half-life (as a rule, the time in which the quantity being followed falls by half) at 1 μM in [1] amounted to 0.541 min. Further, on 5-HT2A receptor [2], the “5-HT2A Arrestin % Act @ Max Dose” value was found to be 110.2% and the “agonist type in the 5-HT2A arrestin recruitment assay, in words” value is “full agonists”. Besides, the half-life at 1 μM in [3] turned out to be 1.61 min. For the same compound, the “5-HT2C % Act @ Max Dose” value on human 5-HT2C receptor is reported as 114.78%. The “5-HT2B % Act @ Max Dose” value at 5-HT2B receptor came to 94.75%. Besides, the “5-HT2A % Act @ Max Dose” value on 5-HT2A receptor [4] was determined as 94.52%. In the series on C57BL/6 mice, the “Most Efficacious Dose” value is “(1 mg/kg)”, the “# HTR at Most Efficacious Dose” value turned out to be 16.667 and the “Emax (95% CI)” value is recorded as 720.4. Besides, the “5-HT1A % Act @ Max Dose” value on 5-HT1A receptor is reported as 107.16%. The same compound gave a half-life at 1 μM in [5] of 1.65 min.

In the case of `C=CCN1C[C@H](C(=O)N[C@H](C)CC)C=C2c3cccc4[nH]cc(c34)C[C@H]21` [Compound 8, (6aR,9R)-7-allyl-N-((R)-sec-butyl)-4,6,6a,7,8,9-hexahydroindolo[4,3-fg]quinoline-9-carboxamide], in series [1], the half-life at 1 μM amounted to 3.7 min. At 5-HT2A receptor [2], the “5-HT2A Arrestin % Act @ Max Dose” value was 112.42% and the “agonist type in the 5-HT2A arrestin recruitment assay, in words” value is recorded as “full agonists”. Moreover, in series [3], the half-life at 1 μM was 7.7 min. Further, at human 5-HT2C receptor, the “5-HT2C % Act @ Max Dose” value was determined as 108.26%. The “5-HT2B % Act @ Max Dose” value on 5-HT2B receptor is 91.56%. Moreover, the “5-HT2A % Act @ Max Dose” value at 5-HT2A receptor [4] worked out at 99.25%. In the series with C57BL/6 mice, the “Most Efficacious Dose” value is listed as “(1 mg/kg)”, the “# HTR at Most Efficacious Dose” value amounted to 15.75 and the “Emax (95% CI)” value amounted to 12.03. Besides, the “5-HT1A % Act @ Max Dose” value at 5-HT1A receptor amounted to 116.41%. This compound had a half-life at 1 μM in series [5] of 7.9 min.

As to `CCN(CC)C(=O)[C@@H]1C=C2c3cccc4[nH]cc(c34)C[C@H]2N(Cc2ccccc2O)C1` [Compound 16, (6aR,9R)-N,N-diethyl-7-(2-hydroxybenzyl)-4,6,6a,7,8,9-hexahydroindolo[4,3-fg]quinoline-9-carboxamide], the “5-HT1B % Act @ Max Dose” value on 5-HT1B receptor was 90.1%. Moreover, the results for the half-life at 1 μM in series [1], in [3] and in series [5] were 1.3 min, 2.2 min and 4.9 min, respectively. The “5-HT2B % Act @ Max Dose” value at 5-HT2B receptor is reported as 26.497%. Further, the “5-HT2A % Act @ Max Dose” value on 5-HT2A receptor [4] is listed as 62.05%. The “5-HT1A % Act @ Max Dose” value on 5-HT1A receptor is recorded as 22.29%.

For `CCN(CC)C(=O)[C@@H]1C=C2c3cccc4[nH]cc(c34)C[C@H]2N(Cc2cccc(OC)c2)C1` [Compound 18, (6aR,9R)-N,N-diethyl-7-(3-methoxybenzyl)-4,6,6a,7,8,9-hexahydroindolo[4,3-fg]quinoline-9-carboxamide], the “5-HT1B % Act @ Max Dose” value on 5-HT1B receptor is listed as 83.31%. Also, the half-life at 1 μM amounted to 2.6 min in series [1], 5.3 min in [3] and 13.6 min in series [5]. Moreover, at 5-HT2B receptor, the “5-HT2B % Act @ Max Dose” value is recorded as 4.69%. On 5-HT2A receptor [4], the “5-HT2A % Act @ Max Dose” value is given as 61.09%. At 5-HT1A receptor, the “5-HT1A % Act @ Max Dose” value is reported as 28.93%.
